Measurements taken from patent publication US6500222B2, “Diureides and their use” (priority 1999, dated 2002).

Columns and labels:
[1] = test system: mustard seedlings (Sinapis alba, 'Maxi'); assay: Mustard seedling test on plant tolerance, growth and yield
ryegrass = assay: Crop production experiment in Mitscherlich containers with ryegrass as test crop; conditions: 2.4 g of N per container
[2] = N fertilization 100 mg/container, DAT 13
[3] = N fertilization 100 mg/container, DAT 23
[4] = N fertilization 200 mg/container, DAT 13
[5] = N fertilization 200 mg/container, DAT 23
[6] = N fertilization 400 mg/container, DAT 13
[7] = N fertilization 400 mg/container, DAT 23

Row | Substance | "Greenness" (%) (N supply) 100% = dark green [1, 2] | "Greenness" (%) (N supply) 100% = dark green [1, 3] | FW yield [1, 3] | N content in the DM (%) [1, 3] | N uptake in the shoot [1, 3] | "Greenness" (%) (N supply) 100% = dark green [1, 4] | "Greenness" (%) (N supply) 100% = dark green [1, 5] | FW yield [1, 5] | Dry-matter production (ryegrass; day 16 post-fertilization) | Nitrogen uptake (ryegrass; day 16 post-fertilization) | Dry-matter production (ryegrass; day 30 post-fertilization) | Nitrogen uptake (ryegrass; day 30 post-fertilization) | Dry-matter production (ryegrass; day 45 post-fertilization) | Nitrogen uptake (ryegrass; day 45 post-fertilization) | Dry-matter production (ryegrass; day 58 post-fertilization) | Nitrogen uptake (ryegrass; day 58 post-fertilization) | Dry-matter production (ryegrass; day 78 post-fertilization) | Nitrogen uptake (ryegrass; day 78 post-fertilization) | Dry-matter production (ryegrass; day 125 post-fertilization) | Nitrogen uptake (ryegrass; day 125 post-fertilization) | also measured
1 | bis(N′-potassium sulfamate)malonic acid diureide [IaB] | 70% | 30% | 7.1 g/container | 3.1% | 46 mg/container | 80% | 85% | 4.7 g/container |  |  |  |  |  |  |  |  |  |  |  |  | N content in the DM (%) [1, 5]: 5.3%; N uptake in the shoot [1, 5]: 80 mg/container; "Greenness" (%) (N supply) 100% = dark green [1, 6]: 85%; "Greenness" (%) (N supply) 100% = dark green [1, 7]: 85%; FW yield [1, 7]: 3.7 g/container; N content in the DM (%) [1, 7]: 6.6%; N uptake in the shoot [1, 7]: 90 mg/container
2 | malonic acid diureide [Compound 1A] |  |  |  |  |  |  |  |  | 5.7 g/container | 185 mg/container | 2.5 g/container | 97 mg/container | 3.8 g/container | 130 mg/container | 3.1 g/container | 119 mg/container | 5.4 g/container | 180 mg/container | 9.3 g/container | 283 mg/container | Dry-matter production (ryegrass; day 100 post-fertilization): 6.3 g/container; Nitrogen uptake (ryegrass; day 100 post-fertilization): 204 mg/container; Dry-matter production (ryegrass; day 174 post-fertilization): 7.2 g/container; Nitrogen uptake (ryegrass; day 174 post-fertilization): 154 mg/container; Dry-matter production (ryegrass; day 252 post-fertilization): 4.5 g/container; Nitrogen uptake (ryegrass; day 252 post-fertilization): 145 mg/container
3 | Urea [reference compound] | 100% | 100% | 19.6 g/container | 4.3% | 84 mg/container | 100% | 100% | 1.6 g/container | 7.7 g/container | 480 mg/container | 5.6 g/container | 311 mg/container | 8.6 g/container | 404 mg/container | 8.6 g/container | 410 mg/container | 5.9 g/container | 127 mg/container | 1.4 g/container | 33 mg/container | Dry-matter production (ryegrass; day 100 post-fertilization): 2.3 g/container; Nitrogen uptake (ryegrass; day 100 post-fertilization): 50 mg/container; Dry-matter production (ryegrass; day 174 post-fertilization): 1.4 g/container; Nitrogen uptake (ryegrass; day 174 post-fertilization): 27 mg/container; N content in the DM (%) [1, 5]: 6.5%; N uptake in the shoot [1, 5]: 10 mg/container
4 | succinic acid diureide [Compound 1B] |  |  |  |  |  |  |  |  | 4 g/container | 114 mg/container | 1.7 g/container | 50 mg/container | 1.3 g/container | 36 mg/container | 2.2 g/container | 69 mg/container | 4.6 g/container | 161 mg/container | 9.6 g/container | 281 mg/container | 
5 | fumaric acid diureide [Compound 1C] |  |  |  |  |  |  |  |  | 4.2 g/container | 112 mg/container | 1.9 g/container | 60 mg/container | 2.1 g/container | 69 mg/container | 3.4 g/container | 108 mg/container | 3.3 g/container | 104 mg/container | 5.1 g/container | 138 mg/container | 
6 | bis(N′-potassium sulfamate)succinic diureide [IaA] | 30% | 30% | 10.4 g/container | 1.5% | 27 mg/container | 30% | 30% | 10.4 g/container |  |  |  |  |  |  |  |  |  |  |  |  | N content in the DM (%) [1, 5]: 1.7%; N uptake in the shoot [1, 5]: 28 mg/container; "Greenness" (%) (N supply) 100% = dark green [1, 6]: 30%; "Greenness" (%) (N supply) 100% = dark green [1, 7]: 30%; FW yield [1, 7]: 10.6 g/container; N content in the DM (%) [1, 7]: 1.9%; N uptake in the shoot [1, 7]: 29 mg/container
